Common to all, as to assay: NCI anticancer screen, dose series, 48 h
Test [1] deals with NCI/ADR-RES ovarian.
Test [2] deals with SNB-75 CNS.
Test [3] deals with UACC-257 melanoma.
The test system of test [4] is T-47D breast.
Test [5] concerns NCI-H23 lung.
In test [6] the test system is ACHN renal.
The subject of test [7] is HL-60(TB) leukemia.
Test [8] relates to PC-3 prostate.

SMILES strings stand for the structures. Several values for one entry are separate records, joined by “and”; a condition that tells them apart may be missing. Equal values may be shown once.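 96-well plates; 48 h exposure; 5 concentrations. Endpoints by linear interpolation between flanking doses. Not reached: highest tested concentration assigned. GI50 is the concentration that inhibits growth by half. The concentration for full growth arrest is given as TGI.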

With `C=C(C)[C@@H]1CC[C@]2(CN)CC[C@]3(C)[C@H](CC[C@@H]4[C@@]5(C)CCC(N)[C@@](C)(CO)[C@@H]5CC[C@]43C)[C@@H]12` (stereo partly drawn), the GI50 is 2.6 µM in test [1]; 1.62 µM in test [2]; 1.77 µM in test [3]; 1.93 µM in test [4]; 1.96 µM in test [5]; 1.86 µM in test [6]. In addition, the GI50 was 1.29 µM in test [7] and 1.65 µM in test [8]. In addition, the TGI amounted to 6.59 µM in test [1]; 3.07 µM in test [2]; 3.24 µM in test [3]; 3.84 µM in test [4]; 3.61 µM in test [5]; 3.29 µM in test [6]. In addition, the TGI in test [7] was determined as 2.97 µM; in test [8] it was 3.1 µM.

With `C[C@@H]1OC(=O)NN=C1c1ccc(-c2ccc(F)cc2)c(C(F)(F)F)c1`, the GI50 in test [1] is 5.08 µM; in test [2], 5 µM; in test [3] it was 3.72 µM; in test [4] it was 5.26 µM; in test [5], 7.17 µM; in test [6] it was 11.2 µM. Moreover, the GI50 in test [7] is 7.93 µM; in test [8] it was 10.5 µM. For the same compound, the TGI in test [1] turned out to be 21.2 µM; in test [2] it was 20.4 µM; in test [3], 19.2 µM; in test [4] it was 25.8 µM; in test [5], 21.2 µM; in test [6], 23.2 µM. Further, the TGI in test [7] was over 100 µM; in test [8] it was 26.8 µM.

In the case of `CC1(C)OC2COC(c3[nH]nc4c(=O)[nH]c(=O)[nH]c34)C2O1` (stereo not drawn), the TGI in test [1], in test [3], in test [4], in test [5], in test [6] and in test [7] was over 100 µM each time. The TGI in test [8] was over 100 µM.

As for `CCN(CC)CCOc1ccc(Cc2ccccc2)cc1`, the GI50 is 26.2 µM in test [1]; 19 µM in test [2]; 22.5 µM in test [3]; 25.5 µM in test [4]; 33.4 µM in test [5]; 47.2 µM in test [6]. Moreover, in test [8], the GI50 was 26.2 µM. The TGI is over 100 µM in test [1]; 94.9 µM in test [2]; 63 µM in test [3]; over 100 µM in test [4]; over 100 µM in test [5]; over 100 µM in test [6]. Further, the TGI in test [8] is over 100 µM.

On to `C[C@H](C(O)CC(=O)C(C)(C)O)[C@H]1CC[C@@]2(C)[C@@H]3CC[C@H]4C(C)(C)[C@@H](OC5OC(COC6OC(CO)C(O)C(O)C6O)C(O)C(O)C5O)CC[C@]4(C)C3=CC[C@]12C` (stereo partly drawn), for which the TGI in test [2], in test [3], in test [4], in test [5], in test [6] and in test [7] was over 100 µM throughout. For the same compound, the TGI in test [8] was over 100 µM.

In the case of `Cc1ccccc1C[P+](c1ccccc1)(c1ccccc1)c1ccccc1`, the GI50 was over 100 µM in test [1]; 1.21 µM in test [2]; 0.371 µM in test [3]; 0.294 µM in test [4]; 1.97 µM in test [5]; 7.28 µM in test [6]. Also, the GI50 in test [7] is 1.58 µM. The TGI is over 100 µM in test [1]; 16.2 µM in test [2]; 4.65 µM in test [3]; 14.9 µM in test [4]; over 100 µM in test [5]; over 100 µM in test [6]. Moreover, in test [7], the TGI is 5.75 µM.

`COc1ccc2c(c1)c(-c1ccc(-c3cn(C)c4ccc(OC)cc34)o1)cn2C`: the GI50 was 3.86 µM in test [1]; 13.6 µM in test [2]; 27 µM in test [3]; 2.72 µM in test [4]; 17.3 µM in test [5]; 3.74 µM in test [6]. Moreover, the GI50 in test [7] was 1.98 µM. The TGI is 16.6 µM in test [1]; 53.7 µM in test [2]; over 100 µM in test [3]; 11.4 µM in test [4]; over 100 µM in test [5]; 18.6 µM in test [6]. The compound further returned a TGI in test [7] of 5.2 µM.

Regarding `CCCCCCC(O)C(O)CCC(O)C1CCC(CCCCC(O)CC2=CC(C)OC2=O)O1` (stereo not drawn), the GI50 is 11 µM in test [1]; 24.1 µM in test [2]; 3.16 µM in test [3]; 4.99 µM in test [4]; 2.86 µM in test [5]; 12.4 µM in test [6]. For the same compound, the GI50 in test [8] is 13.1 µM. Also, the TGI in test [1] is 7.03 µM and 29.3 µM; in test [2], 60.8 µM; in test [3], 41.9 µM; in test [4], 40.7 µM; in test [5], 40.1 µM; in test [8] it was 33.1 µM.

As to `Cc1ccc(-n2c3c(c4c(CN)c(O)ccc42)CCc2ccccc2C3=O)cc1`, the GI50 in test [1] is 12.5 µM; in test [2], 18.9 µM; in test [3], 18 µM; in test [4], 22.8 µM; in test [5], 14.1 µM; in test [6] it was 16.7 µM. The GI50 in test [8] is 4.77 µM. For the same compound, the TGI is 28.5 µM in test [1]; 39.3 µM in test [2]; 34.1 µM in test [3]; 50.1 µM in test [4]; 28.5 µM in test [5]; 31.1 µM in test [6]. Further, the TGI in test [8] is 19.3 µM.

On to `COc1cc2c(cc1OC)-c1ncc3cc(OC)c(OC)c(OC)c3c1C2`, for which the GI50 in test [1] was 19.1 µM; in test [2], 72 µM; in test [3], 16.4 µM; in test [4], over 100 µM; in test [6] it was 32 µM; in test [8], 17.1 µM. For the same compound, the TGI in test [1] was 89.2 µM; in test [2] it was over 100 µM; in test [3] it was 52.6 µM; in test [4], over 100 µM; in test [6], over 100 µM; in test [8] it was over 100 µM.

As to `CN(C)C1C(=O)C(C(N)=O)=C(O)C2(O)C(=O)C3=C(O)c4c(O)cccc4C(C)(O)C3CC12` (stereo not drawn), the TGI was over 100 µM in test [1]; over 100 µM in test [3]; over 100 µM in test [4]; 58.5 µM and > 100 µM in test [5]; over 100 µM in test [6]; 53.2 µM and > 100 µM in test [7]. The compound also gave a TGI in test [8] of over 100 µM. Also, the GI50 is 31.4 µM and > 100 µM in test [5]; 39.9 µM and 82.7 µM in test [6]; 24.5 µM and 82.9 µM in test [7].

With `Cc1ccc2c(c1)-c1oc(=O)c(-c3cc4ccccc4oc3=O)cc1C(O)O2` (stereo not drawn), the GI50 in test [1] is 23.2 µM; in test [2], 15.6 µM; in test [3], 34 µM; in test [4], 21.3 µM; in test [5], 23.5 µM; in test [6], 10.2 µM. The GI50 in test [8] is 45.2 µM. The TGI in test [1] is 52.3 µM; in test [2], 47 µM; in test [3] it was 92.6 µM; in test [4] it was 41.7 µM; in test [5] it was 45.8 µM; in test [6], 24.4 µM. The same compound registered a TGI in test [8] of over 100 µM.

Take `O=C(Nc1ccc(N2CCNCC2)cn1)c1[nH]ncc1Nc1ncnc2sccc12`: the GI50 in test [1] was over 100 µM; in test [2] it was 4.89 µM; in test [3], 16.4 µM; in test [5], 2.02 µM; in test [6] it was 2.17 µM; in test [7] it was 2.99 µM. Also, in test [8], the GI50 was 1.59 µM. Besides, the TGI was over 100 µM in test [1]; 21.2 µM in test [2]; 36.7 µM in test [3]; 4.75 µM in test [5]; 5.33 µM in test [6]; 22.6 µM in test [7]. In test [8], this compound came in with a TGI of 3.65 µM.

On to `CC1=CC2=C(C#N)C(=O)OC2(C)C(c2ccccc2)C1` (stereo not drawn), for which the TGI in test [1], in test [2], in test [3], in test [6] and in test [8] was over 100 µM each time.

`CCCCCCCCCCCCC(NC(C)=O)(C(=O)OCC)C(=O)OCC`: the GI50 in test [1] was 10.3 µM; in test [2] it was 11.3 µM; in test [3], 11.7 µM; in test [4] it was 5.43 µM; in test [5], 10.8 µM; in test [6], 12.6 µM. The GI50 in test [8] was 7.03 µM. The TGI in test [1] came out at 23.7 µM; in test [2], 23.8 µM; in test [3], 26.1 µM; in test [4], 20.7 µM; in test [5] it was 24.8 µM; in test [6] it was 25.3 µM. This compound came in with a TGI in test [8] of 21.1 µM.

With `CC(=Nc1ccccc1)C1=C(O)C(Cc2ccc(F)cc2)NC1=O` (stereo not drawn), the GI50 in test [1] was 0.42 µM; in test [3], over 100 µM; in test [4], 0.793 µM; in test [5] it was 1.71 µM; in test [6] it was 8.24 µM; in test [7] it was 0.287 µM. Moreover, the GI50 in test [8] was 0.894 µM. For the same compound, the TGI in test [1] was 13.8 µM; in test [3], over 100 µM; in test [4], over 100 µM; in test [5], over 100 µM; in test [6], over 100 µM; in test [7], over 100 µM. The TGI in test [8] is over 100 µM.

For the origin of these results see PubChem BioAssay (NCI).
